Data as given in ChEMBL document CHEMBL1137118, “Definition of the heterocyclic pharmacophore of bacterial methionyl tRNA synthetase inhibitors: potent antibacterially active non-quinolone analogues” (Bioorg Med Chem Lett, 2004).
≈ marks a conversion by molar mass, not a printed value.

Assays:
Methionine--tRNA ligase = Methionine--tRNA ligase (Staphylococcus aureus subsp. aureus MW2, UniProt Q8NY00); assay: Inhibitory concentration against Staphylococcus aureus methionyl tRNA synthetase
Enterococcus faecalis [1] = assay: Antibacterial activity against Enterococcus faecalis 1; type: functional
Staphylococcus aureus [2] = assay: Antibacterial activity against Staphylococcus aureus Oxford; type: functional
Enterococcus faecium = assay: Concentration required to inhibit 90% population of Enterococcus faecium; type: functional
Enterococcus faecalis [3] = assay: Concentration required to inhibit 90% population of Enterococcus faecalis; type: functional
[4] = system: Staphylococcus epidermidis; assay: Concentration required to inhibit 90% population of Staphylococcus epidermidis; type: functional
Staphylococcus aureus [5] = assay: Concentration required to inhibit 90% population of Staphylococcus aureus; type: functional

Chain of Methionine--tRNA ligase (Q8NY00 whole entry): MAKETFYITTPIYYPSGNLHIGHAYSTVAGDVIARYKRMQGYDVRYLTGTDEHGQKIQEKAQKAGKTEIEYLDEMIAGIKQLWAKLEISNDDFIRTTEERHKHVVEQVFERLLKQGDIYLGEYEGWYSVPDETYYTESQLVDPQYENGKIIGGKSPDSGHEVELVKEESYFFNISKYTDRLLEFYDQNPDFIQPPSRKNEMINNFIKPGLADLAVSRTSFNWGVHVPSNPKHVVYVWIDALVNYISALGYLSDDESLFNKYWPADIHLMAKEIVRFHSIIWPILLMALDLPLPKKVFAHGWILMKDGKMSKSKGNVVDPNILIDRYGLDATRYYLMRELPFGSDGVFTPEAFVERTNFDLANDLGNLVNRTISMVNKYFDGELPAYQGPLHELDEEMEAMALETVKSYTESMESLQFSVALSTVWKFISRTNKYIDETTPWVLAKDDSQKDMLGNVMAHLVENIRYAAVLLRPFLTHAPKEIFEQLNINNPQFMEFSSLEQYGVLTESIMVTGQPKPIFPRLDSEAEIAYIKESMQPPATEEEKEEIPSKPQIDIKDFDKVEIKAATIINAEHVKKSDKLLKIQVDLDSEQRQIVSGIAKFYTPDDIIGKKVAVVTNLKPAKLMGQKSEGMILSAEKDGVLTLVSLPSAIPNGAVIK

`Oc1cc(NCCCNCc2cc(Cl)cc(Cl)c2Cl)nc2ccccc12` showed an IC50 (Methionine--tRNA ligase) of under 3 nM.

In the case of `Oc1cc(NCCCNCc2cc(Br)cc(Br)c2)nc2ccccc12`, the MIC (Enterococcus faecalis [1]) is reported as at most 0.06 µg/mL, the MIC (Staphylococcus aureus [2]) is reported as 0.25 µg/mL (≈ 0.537 µM) and the IC50 (Methionine--tRNA ligase) is reported as under 3 nM.

Work on `Oc1nc(NCCCNC2CCNc3c(Cl)cc(Br)cc32)nc2ccsc12` (centres undefined) yielded an MIC (Enterococcus faecalis [1]) of at most 0.06 µg/mL, an MIC (Staphylococcus aureus [2]) of at most 0.06 µg/mL and an IC50 (Methionine--tRNA ligase) of under 3 nM.

For `CCOc1c(Br)cc(Br)cc1CNCCCNc1nc2ccccc2[nH]1`, the MIC (Enterococcus faecalis [1]) was 0.25 µg/mL (≈ 0.518 µM), the MIC (Staphylococcus aureus [2]) was 1 µg/mL (≈ 2.07 µM) and the IC50 (Methionine--tRNA ligase) was 17 nM.

For `CCOc1c(Cl)cc(Cl)cc1CNCCCNc1nc(O)c2sccc2n1`, the MIC (Enterococcus faecalis [1]) was 0.13 µg/mL (≈ 0.304 µM), the MIC (Staphylococcus aureus [2]) was 0.25 µg/mL (≈ 0.585 µM) and the IC50 (Methionine--tRNA ligase) was under 3 nM.

`CCOc1c(Br)cc(Cl)cc1CNCCCNc1nc(O)c2sccc2n1` showed an MIC (Enterococcus faecalis [1]) of 0.13 µg/mL (≈ 0.276 µM), an MIC (Staphylococcus aureus [2]) of 0.13 µg/mL (≈ 0.276 µM) and an IC50 (Methionine--tRNA ligase) of under 3 nM.

`Clc1cc(Cl)c(Cl)c(CNCCCNc2ccc3ccccc3n2)c1` was tested, and the IC50 (Methionine--tRNA ligase) was 100 nM.

In the case of `CCc1cc(I)c2c(c1)C(NCCCNc1nc(O)c3sccc3n1)CCN2` (centres undefined), the MIC (Enterococcus faecalis [1]) is reported as 0.5 µg/mL (≈ 0.982 µM), the MIC (Staphylococcus aureus [2]) is reported as at most 0.06 µg/mL and the IC50 (Methionine--tRNA ligase) is reported as under 3 nM.

Molecule `Brc1cc(Br)c2c(c1)C(NCCCNc1nc3ncccc3[nH]1)CCN2` (centres undefined) has an MIC90 (Enterococcus faecium) of 0.03 µg/mL (≈ 0.0625 µM), an MIC (Enterococcus faecalis [1]) of at most 0.06 µg/mL and an MIC (Staphylococcus aureus [2]) of at most 0.06 µg/mL. The IC50 (Methionine--tRNA ligase) was 11 nM, the MIC90 (Enterococcus faecalis [3]) was 0.06 µg/mL (≈ 0.125 µM) and the MIC90 [4] was 0.5 µg/mL (≈ 1.04 µM). For the same molecule, the MIC90 (Staphylococcus aureus [5]) was 1 µg/mL (≈ 2.08 µM).

`Brc1cc(Br)cc(CNCCCNc2nc3ccccc3[nH]2)c1` gave an MIC (Enterococcus faecalis [1]) of 0.13 µg/mL (≈ 0.297 µM), an MIC (Staphylococcus aureus [2]) of 1 µg/mL (≈ 2.28 µM) and an IC50 (Methionine--tRNA ligase) of 29 nM.

Work on `Oc1cc(NCCCNCc2cc(Cl)cc(Cl)c2Cl)cc2ccccc12` yielded an IC50 (Methionine--tRNA ligase) of 1800 nM.

`CCOc1c(Br)cc(Br)cc1CNCCCNc1nc2ccccc2c(=O)[nH]1` showed an MIC (Enterococcus faecalis [1]) of at most 0.06 µg/mL, an MIC (Staphylococcus aureus [2]) of 0.13 µg/mL (≈ 0.255 µM) and an IC50 (Methionine--tRNA ligase) of 9.7 nM.

Work on `Oc1nc(NCCCNCc2cc(Br)cc(Br)c2)nc2c1CCC2` yielded an MIC (Enterococcus faecalis [1]) of over 64 µg/mL, an MIC (Staphylococcus aureus [2]) of over 64 µg/mL and an IC50 (Methionine--tRNA ligase) of 580 nM.

For `O=C(NCCCNCc1cc(Br)cc(Br)c1)Nc1ccccc1`, the MIC (Enterococcus faecalis [1]) was 8 µg/mL (≈ 18.1 µM), the MIC (Staphylococcus aureus [2]) was over 64 µg/mL and the IC50 (Methionine--tRNA ligase) was 330 nM.

`CCOc1c(Br)cc(Br)cc1CNCCCNc1nc(O)c2sccc2n1` showed an MIC (Enterococcus faecalis [1]) of at most 0.06 µg/mL, an MIC (Staphylococcus aureus [2]) of 0.13 µg/mL (≈ 0.252 µM) and an IC50 (Methionine--tRNA ligase) of 4.9 nM.

`CCc1cc(I)c2c(c1)C(NCCCNc1nc3ccc[nH]c-3n1)CCN2` (centres undefined) was tested, and the MIC (Enterococcus faecalis [1]) was 1 µg/mL (≈ 2.1 µM), the MIC (Staphylococcus aureus [2]) was 0.25 µg/mL (≈ 0.525 µM) and the IC50 (Methionine--tRNA ligase) was 18 nM.

In the case of `Brc1cc(Br)cc(CNCCCNc2nc3ccc[nH]c-3n2)c1`, the MIC (Enterococcus faecalis [1]) is reported as 0.25 µg/mL (≈ 0.569 µM), the MIC (Staphylococcus aureus [2]) is reported as 0.5 µg/mL (≈ 1.14 µM) and the IC50 (Methionine--tRNA ligase) is reported as 5 nM.

With `CCOc1c(Cl)cc(Cl)cc1CNCCCNc1nc(O)c2ccccc2n1` the MIC (Enterococcus faecalis [1]) was at most 0.06 µg/mL, the MIC (Staphylococcus aureus [2]) was 0.13 µg/mL (≈ 0.309 µM) and the IC50 (Methionine--tRNA ligase) was under 3 nM.

For `CCc1cc(I)c2c(c1)C(NCCCNc1nc3ccccc3[nH]1)CCN2` (centres undefined), the MIC (Enterococcus faecalis [1]) was 1 µg/mL (≈ 2.1 µM), the MIC (Staphylococcus aureus [2]) was 0.5 µg/mL (≈ 1.05 µM) and the IC50 (Methionine--tRNA ligase) was 16 nM.

In the case of `CCOc1c(Br)cc(OC)cc1CNCCCNc1nc2ccccc2[nH]1`, the MIC (Enterococcus faecalis [1]) is reported as 0.13 µg/mL (≈ 0.3 µM), the MIC (Staphylococcus aureus [2]) is reported as 1 µg/mL (≈ 2.31 µM) and the IC50 (Methionine--tRNA ligase) is reported as 17 nM.

`N#Cc1c(NCCCNCc2cc(Br)cc(Br)c2)[nH]c2ccccc12` gave an MIC (Enterococcus faecalis [1]) of 0.25 µg/mL (≈ 0.541 µM), an MIC (Staphylococcus aureus [2]) of 0.5 µg/mL (≈ 1.08 µM) and an IC50 (Methionine--tRNA ligase) of 54 nM.

`Brc1cc(Br)c2c(c1)[C@H](NCCCNc1nc3ncccc3[nH]1)CCN2` was tested, and the MIC (Enterococcus faecalis [1]) was at most 0.06 µg/mL, the MIC (Staphylococcus aureus [2]) was at most 0.06 µg/mL and the IC50 (Methionine--tRNA ligase) was 6.3 nM.

`O=c1cc(NCCCNCc2cc(Cl)cc(Cl)c2Cl)oc2ccccc12` gave an IC50 (Methionine--tRNA ligase) of 1000 nM.

In the case of `O=c1nc(NCCCNCc2cc(Br)cc(Br)c2)[nH]c2ccsc12`, the MIC (Enterococcus faecalis [1]) is reported as at most 0.06 µg/mL, the MIC (Staphylococcus aureus [2]) is reported as 0.5 µg/mL (≈ 1.06 µM) and the IC50 (Methionine--tRNA ligase) is reported as 3.9 nM.

Work on `CCOc1c(Br)cc(Cl)cc1CNCCCNc1nc(O)c2ccccc2n1` yielded an MIC (Enterococcus faecalis [1]) of at most 0.06 µg/mL, an MIC (Staphylococcus aureus [2]) of 0.13 µg/mL (≈ 0.279 µM) and an IC50 (Methionine--tRNA ligase) of under 3 nM.

`Oc1cc(SCCCNCc2ccc(Cl)c(Cl)c2)nc2ccccc12` was tested, and the MIC (Staphylococcus aureus [2]) was over 64 µg/mL and the IC50 (Methionine--tRNA ligase) was 680 nM.

Molecule `Brc1cc(Br)c2c(c1)C(NCCCNc1nc3ccccc3[nH]1)CCN2` (centres undefined) has an MIC (Enterococcus faecalis [1]) of at most 0.06 µg/mL, an MIC (Staphylococcus aureus [2]) of 0.25 µg/mL (≈ 0.522 µM) and an IC50 (Methionine--tRNA ligase) of 13 nM.

In the case of `Oc1nc(NCCCNCc2cc(Br)cc(Br)c2)nc2sccc12`, the MIC (Enterococcus faecalis [1]) is reported as 32 µg/mL (≈ 67.8 µM), the MIC (Staphylococcus aureus [2]) is reported as over 64 µg/mL and the IC50 (Methionine--tRNA ligase) is reported as 150 nM.

Molecule `Oc1cc(-c2ccccc2)nc(NCCCNCc2cc(Br)cc(Br)c2)n1` has an MIC (Enterococcus faecalis [1]) of over 64 µg/mL, an MIC (Staphylococcus aureus [2]) of over 64 µg/mL and an IC50 (Methionine--tRNA ligase) of over 1000 nM.

`Oc1nc(NCCCNC2CCNc3c(Br)cc(Br)cc32)nc2ccsc12` (centres undefined) showed an MIC (Enterococcus faecalis [1]) of at most 0.06 µg/mL, an MIC (Staphylococcus aureus [2]) of at most 0.06 µg/mL and an IC50 (Methionine--tRNA ligase) of 13 nM.

`CCOc1c(Br)cc(OC)cc1CNCCCNc1nc(O)c2sccc2n1` was tested, and the MIC (Enterococcus faecalis [1]) was at most 0.06 µg/mL, the MIC (Staphylococcus aureus [2]) was 0.25 µg/mL (≈ 0.535 µM) and the IC50 (Methionine--tRNA ligase) was 3.3 nM.

Molecule `CCOc1c(Br)cc(OC)cc1CNCCCNc1nc(O)c2ccccc2n1` has an MIC (Enterococcus faecalis [1]) of at most 0.06 µg/mL, an MIC (Staphylococcus aureus [2]) of 0.13 µg/mL (≈ 0.282 µM) and an IC50 (Methionine--tRNA ligase) of 7 nM.

In the case of `Oc1cc(OCCCNCc2ccc(Cl)c(Cl)c2)nc2ccccc12`, the MIC (Staphylococcus aureus [2]) is reported as 32 µg/mL (≈ 84.8 µM) and the IC50 (Methionine--tRNA ligase) is reported as 38 nM.

`Oc1cc(NCCCNCc2cc(Br)cc(Br)c2)nc2sccc12` was tested, and the MIC (Enterococcus faecalis [1]) was at most 0.06 µg/mL, the MIC (Staphylococcus aureus [2]) was 0.25 µg/mL (≈ 0.531 µM) and the IC50 (Methionine--tRNA ligase) was 6.2 nM.

`CCOc1c(Cl)cc(Cl)cc1CNCCCNc1nc2ccccc2[nH]1` showed an MIC (Enterococcus faecalis [1]) of 0.5 µg/mL (≈ 1.27 µM), an MIC (Staphylococcus aureus [2]) of 2 µg/mL (≈ 5.08 µM) and an IC50 (Methionine--tRNA ligase) of under 3 nM.

Molecule `Oc1cc(NCCCNCc2cc(Br)cc(Br)c2)nc2ccsc12` has an MIC (Enterococcus faecalis [1]) of at most 0.06 µg/mL, an MIC (Staphylococcus aureus [2]) of 0.13 µg/mL (≈ 0.276 µM) and an IC50 (Methionine--tRNA ligase) of 4 nM.

Work on `CCOc1c(Br)cc(Cl)cc1CNCCCNc1nc2ccccc2[nH]1` yielded an MIC (Enterococcus faecalis [1]) of 0.5 µg/mL (≈ 1.14 µM), an MIC (Staphylococcus aureus [2]) of 1 µg/mL (≈ 2.28 µM) and an IC50 (Methionine--tRNA ligase) of 3.8 nM.

`Oc1nc(NCCCNCc2cc(Br)cc(Br)c2)nc2ccccc12` was tested, and the MIC (Enterococcus faecalis [1]) was at most 0.06 µg/mL, the MIC (Staphylococcus aureus [2]) was 0.25 µg/mL (≈ 0.536 µM) and the IC50 (Methionine--tRNA ligase) was 8.1 nM.

In the case of `CCc1cc(I)c2c(c1)C(NCCCNc1nc(O)c3ccccc3n1)CCN2` (centres undefined), the MIC (Enterococcus faecalis [1]) is reported as 0.25 µg/mL (≈ 0.497 µM), the MIC (Staphylococcus aureus [2]) is reported as at most 0.06 µg/mL and the IC50 (Methionine--tRNA ligase) is reported as 17 nM.

With `Oc1nc(NCCCNC2CCNc3c(Cl)cc(Br)cc32)nc2ccccc12` (centres undefined) the MIC (Enterococcus faecalis [1]) was at most 0.06 µg/mL, the MIC (Staphylococcus aureus [2]) was at most 0.06 µg/mL and the IC50 (Methionine--tRNA ligase) was 8.2 nM.
